Assay results published in US8435769B2, “Use of glyphosate to produce shikimic acid in microorganisms” (Monsanto Technology LLC, priority 2007, dated 2013).

Key:
Assay type in all cases: cell-based, Escherichia coli
[1] = system: E. coli K-12 host strain LBB427 (untransformed and transformed with plasmid pXT1457); test: Growth of shake-flask cultures after glyphosate addition; conditions: glyphosate 3.38 grams per liter (20 millimolar) added 2.5 hours after inoculation; Vogel-Bonner minimal culture medium; 37 degrees Celsius
Procedure: (§1) To confirm that the new plasmid was functioning as expected, the wild-type E. coli K-12 host strain LBB427 was transformed with the plasmid pXT1457. Techniques for transforming bacteria, including strains of E. coli, are known in the art (Sambrook and Russell, 2001; Ausubel et al., 2005). The shikimic acid and phenylalanine production levels of this strain were compared to that of the untransformed host strain LBB427. […] At 24 hours after inoculation, the cells were pelleted by centrifugation, and the culture supernatants were analyzed by a high-pressure liquid chromatography (HPLC) assay for shikimic acid and phenylalanine content. […]
The untransformed host strain LBB427 and the host strain LBB427 transformed with the plasmid pXT1457 were grown in 50 milliliters of the Vogel-Bonner minimal culture medium described in Example 1. […] At 24 hours after inoculation (i.e., 21.5 hours after N-(phosphonomethyl)glycine addition), the cells were pelleted by centrifugation, and the culture supernatants were analyzed for shikimic acid content using the HPLC assay described in Example 1. The culture supernatants of the host strain LBB427 transformed with the plasmid pXT1457 were also analyzed for phenylalanine content.

[2] = system: untransformed host strain LBB427; test: HPLC assay of culture supernatant after glyphosate treatment, untransformed strain
Procedure: as §1
[…] At 24 hours after inoculation (i.e., 21.5 hours after N-(phosphonomethyl)glycine addition), the cells were pelleted by centrifugation, and the culture supernatants were analyzed for shikimic acid content using the HPLC assay described in Example 1. The culture supernatants of the host strain LBB427 transformed with the plasmid pXT1457 were also analyzed for phenylalanine content. […]

[3] = system: host strain LBB427 transformed with the plasmid pXT1457; test: HPLC assay of culture supernatant after glyphosate treatment, pXT1457 strain
Procedure: To confirm that the new plasmid was functioning as expected, the wild-type E. coli K-12 host strain LBB427 was transformed with the plasmid pXT1457. Techniques for transforming bacteria, including strains of E. coli, are known in the art (Sambrook and Russell, 2001; Ausubel et al., 2005). The shikimic acid and phenylalanine production levels of this strain were compared to that of the untransformed host strain LBB427. The strains were cultured in 50 milliliters of Vogel-Bonner minimal culture medium (Vogel and Bonner, 1956), consisting of magnesium sulfate heptahydrate (MgSO4-7H2O) at 298 milligrams per liter, anhydrous dibasic potassium phosphate (K2HPO4) at 14.93 grams per liter, sodium ammonium phosphate tetrahydrate (NaNH4HPO4-4H2O) at 5.22 grams per liter, anhydrous citric acid (the free acid form) at 2.73 grams per liter, and glucose at 2.00 grams per liter. The pH of the culture medium was 7.0. For the strain LBB427 transformed with the plasmid pXT1457, ampicillin was included in the culture medium at 100 milligrams per liter. The cultures were grown in flasks, on an incubator shaker operating at 300 rpm and 37 degrees Celsius. At 24 hours after inoculation, the cells were pelleted by centrifugation, and the culture supernatants were analyzed by a high-pressure liquid chromatography (HPLC) assay for shikimic acid and phenylalanine content. To the samples to be assayed, phosphoric acid was added to a final concentration of 6 millimolar. […]
The untransformed host strain LBB427 and the host strain LBB427 transformed with the plasmid pXT1457 were grown in 50 milliliters of the Vogel-Bonner minimal culture medium described in Example 1. […] At 24 hours after inoculation (i.e., 21.5 hours after N-(phosphonomethyl)glycine addition), the cells were pelleted by centrifugation, and the culture supernatants were analyzed for shikimic acid content using the HPLC assay described in Example 1. The culture supernatants of the host strain LBB427 transformed with the plasmid pXT1457 were also analyzed for phenylalanine content. […]

[4] = system: host strain LBB427 transformed with the plasmid pXT1483; test: HPLC assay of culture supernatant after glyphosate treatment, pXT1483 strain
[5] = system: host strain LBB427 transformed with the plasmid pXT1483; test: High-density phosphate-limited fermentation culture with glyphosate addition; conditions: optical density of 40; glyphosate 20 millimolar; twelve hours after addition; sample at pH 1.0, 60 degrees Celsius, 15 minutes
Procedure: The host strain LBB427 transformed with the plasmid pXT1483 can be grown to high optical densities in a phosphate-limited fermentation culture. Fermentations are conducted in a chemically-defined minimal medium containing 5.9 grams of anhydrous ammonium sulfate ((NH4)2SO4), 1.8 grams of anhydrous dibasic potassium phosphate (K2HPO4), 1.0 grams of monobasic sodium phosphate monohydrate (NaH2PO4—H2O), 550 milligrams of magnesium sulfate heptahydrate (MgSO4-7H2O), 27 milligrams of ferric chloride hexahydrate (FeCl3-6H2O), 0.5 milligrams of zinc sulfate heptahydrate (ZnSO4-7H2O), 0.9 milligrams of cobalt chloride hexahydrate (CoCl2-6H2O), 0.9 milligrams of sodium molybdate dihydrate (Na2MoO4-2H2O), 1.1 milligrams of cupric sulfate pentahydrate (CuSO4-5H2O), 0.3 milligrams of boric acid (H3BO3), and 0.7 milligrams of manganese sulfate monohydrate (MnSO4—H2O) per liter of water. The fermenter is maintained at 37 degrees Celsius. The pH is maintained at 7.0 by the controlled addition of concentrated (about 29%) ammonium hydroxide (NH4OH). […]
Twelve hours after N-(phosphonomethyl)glycine addition, samples of the fermentation cultures are taken for analysis of shikimic acid levels. […] The cells are pelleted by centrifugation, and the culture supernatants are analyzed for shikimic acid content using the HPLC assay described in Example 1.

[6] = glyphosate 20 millimolar and phosphate-limitation (PF culture medium), 24 hours after inoculation
[7] = glyphosate 20 millimolar, Vogel-Bonner minimal culture medium, 24 hours after inoculation (21.5 hours after addition)

Compound: O=C(O)CNCP(=O)(O)O [glyphosate, N-(phosphonomethyl)-glycine]
- Growth of the cultures [1]: almost completely inhibited
- shikimic acid in the culture supernatant [2, 6]: about 200 milligrams of shikimic acid per OD unit per liter
- shikimic acid in the culture supernatant [2, 7]: did not produce detectable levels of shikimic acid
- shikimic acid in the culture supernatant [3, 6]: about 250 milligrams of shikimic acid per OD unit per liter
- shikimic acid in the culture supernatant [3, 7]: did not produce detectable levels of shikimic acid
- phenylalanine in the culture supernatant ([3]; glyphosate 20 millimolar, Vogel-Bonner minimal culture medium, 24 hours after inoculation, about 400 without glyphosate): about 50 milligrams of phenylalanine per OD unit per liter
- shikimic acid in the culture supernatant [4, 6]: about 400 milligrams of shikimic acid per OD unit per liter
- level of shikimic acid in the culture supernatant ([4]; glyphosate 20 millimolar and phosphate-limitation, culture sample with cells adjusted to pH 1.0, heated to 60 degrees Celsius for 15 minutes): about 600 milligrams per OD unit per liter
- shikimic acid in the culture supernatant [5]: about 24 grams of shikimic acid per liter
